Reference: article PMC6282583 (Chemmedchem, 2018)

What was measured:
endothiapepsin [1] = molecular target: T1, endothiapepsin (Cryphonectria parasitica, UniProt P11838); assay: fluorescence-based protease assay adapted from HIV-protease assay; type: biochemical
T1 sequence (P11838 90-419): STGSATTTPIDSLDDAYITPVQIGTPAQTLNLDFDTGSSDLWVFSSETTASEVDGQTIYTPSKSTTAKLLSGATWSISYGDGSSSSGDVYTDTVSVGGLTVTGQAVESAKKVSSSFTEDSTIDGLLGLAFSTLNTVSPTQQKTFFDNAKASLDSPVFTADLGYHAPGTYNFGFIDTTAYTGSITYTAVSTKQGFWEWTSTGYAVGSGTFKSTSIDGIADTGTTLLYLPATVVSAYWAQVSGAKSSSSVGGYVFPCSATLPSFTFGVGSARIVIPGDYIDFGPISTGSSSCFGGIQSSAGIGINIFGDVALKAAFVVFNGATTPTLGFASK

endothiapepsin [2] = molecular target: T1, endothiapepsin; assay: as above; type: biochemical; remark: listed apart in the source

Row | SMILES | IC50 (endothiapepsin [1]) [µM] | Ki (endothiapepsin [2]) [µM]
1 | Cc1cc(C)c(CCNC(=O)[C@@H](N)Cc2c[nH]c3ccccc23)c(C)c1 [(S)-2] | 12.9 ± 0.7 | 6.1 ± 0.4
2 | Cc1cc(C)c(CCOC(=O)[C@@H](N)Cc2c[nH]c3ccccc23)c(C)c1 [(S)-3] | 28.7 ± 4.1 | 13.5 ± 1.9
3 | Cc1cc(C)c(Cc2csc([C@@H](N)Cc3c[nH]c4ccccc34)n2)c(C)c1 [(S)-4] | 194 ± 11.4 | 91.2 ± 5.4
